The NIST ThermoML archive (doi:10.1016/j.jct.2011.08.015)

Assays:
[1] = for surface tension liquid-gas: Drop volume; for electrical conductivity / viscosity / speed of sound / mass density: 101.33 kPa, Liquid; for electrical conductivity: CRISON model GLP31; for viscosity: Capillary tube (Ostwald / Ubbelohde) method; for speed of sound: Sing-around technique in a fixed-path interferometer; for mass density: Vibrating tube method
[2] = molar heat capacity at constant pressure; settings: 101.33 kPa, Liquid, Small sample (50 mg) DSC
[3] = refractive index (Na D-line) (dimensionless); settings: 101.33 kPa, Liquid, Standard Abbe refractometry

CCC[n+]1ccccc1.F[B-](F)(F)F [1-propylpyridinium tetrafluoroborate]
Settings	electrical conductivity, [1] [S/m]	mass density, [1] [kg/m3]	molar heat capacity at constant pressure, [2] [J/K/mol]	refractive index, [3]	speed of sound, [1] [m/s]	surface tension liquid-gas, [1] [mN/m]	viscosity, [1] [mPa·s]
278.15 K	0.102	1267.63	352	–	1691.9	52.55	461.4
280.65 K	0.123	1265.78	354	–	1685.4	52.35	379.1
283.15 K	0.151	1263.92	355	1.44855	1678.9	52.16	314.2
285.65 K	0.181	1262.06	356	1.44789	1672.5	51.94	262.5
288.15 K	0.215	1260.19	357	1.44723	1666.2	51.72	220.8
290.65 K	0.252	1258.42	359	1.44655	1660	51.53	186.9
293.15 K	0.302	1256.64	361	1.44588	1653.9	51.29	160
295.65 K	0.352	1254.86	362	1.44522	1647.8	51.15	137.7
298.15 K	0.401	1253.08	363	1.44455	1641.7	50.97	119.5
300.65 K	0.456	1251.3	365	1.44389	1635.7	50.73	103.8
303.15 K	0.516	1249.52	366	1.44322	1629.8	50.51	90.75
305.65 K	0.581	1247.73	367	1.44256	1623.8	50.32	79.75
308.15 K	0.649	1245.95	369	1.4419	1618	50.12	70.61
310.65 K	0.722	1244.18	370	1.44123	1612.1	49.93	62.81
313.15 K	0.799	1242.4	372	1.44057	1606.3	49.79	56.02
315.65 K	0.881	1240.63	373	1.4399	1600.5	49.54	50.22
318.15 K	0.965	1238.86	374	1.43924	1594.8	49.41	45.19
320.65 K	1.07	1237.1	376	1.43859	1589	49.21	40.86
323.15 K	1.15	1235.33	377	1.43792	1583.3	49.03	36.99
325.65 K	1.26	1233.58	378	1.43726	1577.6	48.82	33.84
328.15 K	1.37	1231.82	380	1.43659	1572	48.7	30.72
330.65 K	1.48	1230.07	381	1.43593	1566.3	48.46	28.09
333.15 K	1.6	1228.32	383	1.43528	1560.7	48.3	25.81
335.65 K	1.73	1226.57	384	1.43463	1555.1	48.1	23.78
338.15 K	1.87	1224.83	385	1.43398	1549.5	47.86	21.97
